How the values were obtained:
[1] = molecular target: T1, HCV polymerase (NS5B) type 1b (Hepatitis C virus genotype 1b, UniProt P26663); assay: Assay of enzyme (HCV polymerase) inhibitory activity, type 1b enzyme; assay type: biochemical, HCV BK strain (type 1b); details: HCV polymerase inhibitory activity IC50, 1b, type 1b enzyme
T1 construct: a region encoding NS5B (J Virol 1991 March, 65(3), 1105-13, 544 amino acids after deletion of 47 amino acids on the C-terminal); 6xHis (C); made in house; host or cells: Escherichia coli
In short: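 Rxn: NS5B 1b (BK, ΔC47, His6) 0.5 μg/ml; substrate RNA 5 μg/ml; ATP/GTP/CTP 50 μM, UTP 2 μM + [5,6-3H]UTP; 20 mM Tris pH 7.5, 5 mM MgCl2, 50 mM NaCl, 1 mM EDTA/DTT. 25 °C, 60 min. Stop with TCA/pyrophosphate, filter, scintillation count; IC50 vs. untreated.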

[2] = molecular target: T2, HCV polymerase (NS5B) type 1a (Hepatitis C virus genotype 1a, UniProt P26664); assay: Assay of enzyme (HCV polymerase) inhibitory activity, type 1a enzyme; assay type: biochemical, HCV type 1a (cloned from the blood of patients); details: HCV polymerase inhibitory activity IC50, 1a, type 1a enzyme
T2 construct: made in house; host or cells: Escherichia coli (by the 'similar method' of the 1b enzyme)
In short: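 NS5B Δ47 C-term His6 (type 1a, 1.5 μg/ml); substrate RNA 5 μg/ml; ATP/GTP/CTP 50 μM, UTP 2 μM + [5,6-3H]UTP; Tris pH 7.5, MgCl2 5 mM; 25° C, 60 min. TCA/pyrophosphate stop, GF/B filter, scintillation. IC50 vs no-compound control.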

| Compound | IC50 [1] | IC50 [2] |
| --- | --- | --- |
| CCc1ccc(S(=O)(=O)N2CCN(c3cnc4cncc(C(=O)O)c4n3)C[C@@H]2C(=O)NCc2ccc(C(C)(C)CC)cc2)cc1 [Example 854, 2-[(R)-3-[4-(1,1-dimethyl-propyl)-benzylcarbamoyl]-4-(4-ethyl-benzenesulfonyl)-piperazin-1-yl]-pyrido[3,4-b]pyrazine-8-carboxylic acid] | < 100 nM | < 100 nM |
| CCCCc1ccc(CNC(=O)[C@H]2CN(c3cnc4cncc(C(=O)O)c4n3)CCN2S(=O)(=O)c2ccc(CC)cc2)cc1 [Example 855, 2-[(R)-3-(4-butyl-benzylcarbamoyl)-4-(4-ethyl-benzenesulfonyl)-piperazin-1-yl]-pyrido[3,4-b]pyrazine-8-carboxylic acid] | < 100 nM | < 100 nM |
| CCCc1ccc(CNC(=O)[C@H]2CN(c3nc(C)c(C(O)C(=O)OCC)s3)CCN2S(=O)(=O)c2ccc(OC(F)(F)F)cc2)cc1 (stereo partly drawn) [Example 856, hydroxy-{4-methyl-2-[(R)-3-(4-propyl-benzylcarbamoyl)-4-(4-trifluoromethoxy-benzenesulfonyl)-piperazin-1-yl]-thiazol-5-yl}-acetic acid ethyl ester] | < 100 nM | 100 to 1000 nM |
| CCCc1ccc(CNC(=O)[C@H]2CN(c3cnc4cncnc4n3)CCN2S(=O)(=O)c2ccc(OC(F)(F)F)cc2)s1 [Example 857, (R)-4-pteridin-7-yl-1-(4-trifluoromethoxy-benzenesulfonyl)-piperazine-2-carboxylic acid (5-propyl-thiophen-2-ylmethyl)-amide] | < 100 nM | < 100 nM |
| CCC(C)(C)c1ccc(CNC(=O)[C@H]2CN(c3cnc4cncc(C(=O)O)c4n3)CCN2S(=O)(=O)c2ccc(Cl)s2)cc1 [Example 858, 2-{(R)-4-(5-chloro-thiophene-2-sulfonyl)-3-[4-(1,1-dimethyl-propyl)-benzylcarbamoyl]-piperazin-1-yl}-pyrido[3,4-b]pyrazine-8-carboxylic acid] | < 100 nM | < 100 nM |
| CCCc1ccc(CNC(=O)[C@H]2CN(c3nc(C)c(C(=O)C(=O)NC)s3)CCN2S(=O)(=O)c2ccc(OC(F)(F)F)cc2)cc1 [Example 859, (R)-4-(4-methyl-5-methylaminooxalyl-thiazol-2-yl)-1-(4-trifluoromethoxy-benzenesulfonyl)-piperazine-2-carboxylic acid 4-propyl-benzylamide] | < 100 nM | 100 to 1000 nM |
| CCCc1ccc(CNC(=O)[C@H]2CN(c3cnc4cncc(C(=O)O)c4n3)CCN2S(=O)(=O)c2ccc(Cl)s2)cc1 [Example 860, 2-[(R)-4-(5-chloro-thiophene-2-sulfonyl)-3-(4-propyl-benzylcarbamoyl)-piperazin-1-yl]-pyrido[3,4-b]pyrazine-8-carboxylic acid] | < 100 nM | < 100 nM |
| O=C(O)c1cncc2ncc(N3CCN(S(=O)(=O)c4ccc(Cl)s4)[C@@H](C(=O)NCc4ccc(OC(F)(F)F)cc4)C3)nc12 [Example 861, 2-[(R)-4-(5-chloro-thiophene-2-sulfonyl)-3-(4-trifluoromethoxy-benzylcarbamoyl)-piperazin-1-yl]-pyrido[3,4-b]pyrazine-8-carboxylic acid] | < 100 nM | < 100 nM |
| CCCc1ccc(CNC(=O)[C@H]2CN(c3nc4c(C(=O)OCC)n[nH]c(=O)c4s3)CCN2S(=O)(=O)c2ccc(CC)cc2)cc1 [Example 862, 2-[(R)-4-(4-ethyl-benzenesulfonyl)-3-(4-propyl-benzylcarbamoyl)-piperazin-1-yl]-7-oxo-6,7-dihydro-thiazolo[4,5-d]pyridazine-4-carboxylic acid ethyl ester] | < 100 nM | < 100 nM |
| CCCc1ccc(CNC(=O)[C@H]2CN(c3nc4c(C(=O)O)n[nH]c(=O)c4s3)CCN2S(=O)(=O)c2ccc(CC)cc2)cc1 [Example 863, 2-[(R)-4-(4-ethyl-benzenesulfonyl)-3-(4-propyl-benzylcarbamoyl)-piperazin-1-yl]-7-oxo-6,7-dihydro-thiazolo[4,5-d]pyridazine-4-carboxylic acid] | < 100 nM | < 100 nM |
| O=C(NCc1ccc(OC(F)(F)F)cc1)[C@H]1CN(c2nc3cn[nH]c(=O)c3s2)CCN1S(=O)(=O)c1ccc(F)cc1 [Example 864, (R)-1-(4-fluoro-benzenesulfonyl)-4-(7-oxo-6,7-dihydro-thiazolo[4,5-d]pyridazin-2-yl)-piperazine-2-carboxylic acid 4-trifluoromethoxy-benzylamide] | < 100 nM | 100 to 1000 nM |
| CNC(=O)c1cncc2ncc(N3CCN(S(=O)(=O)c4ccc(OC(F)(F)F)cc4)[C@@H](C(=O)NCc4ccc(OC(F)(F)F)cc4)C3)nc12 [Example 865, 2-[(R)-4-(4-trifluoromethoxy-benzenesulfonyl)-3-(4-trifluoromethoxy-benzylcarbamoyl)-piperazin-1-yl]-pyrido[3,4-b]pyrazine-8-carboxylic acid methylamide] | < 100 nM | < 100 nM |
| CN(C)C(=O)c1cncc2ncc(N3CCN(S(=O)(=O)c4ccc(OC(F)(F)F)cc4)[C@@H](C(=O)NCc4ccc(OC(F)(F)F)cc4)C3)nc12 [Example 866, 2-[(R)-4-(4-trifluoromethoxy-benzenesulfonyl)-3-(4-trifluoromethoxy-benzylcarbamoyl)-piperazin-1-yl]-pyrido[3,4-b]pyrazine-8-carboxylic acid dimethylamide] | < 100 nM | < 100 nM |
| O=C(NCC1CN(c2ccccc2)C1)[C@H]1CN(c2cnc3cncnc3n2)CCN1S(=O)(=O)c1ccc(OC(F)(F)F)cc1 [Example 867, (R)-4-pteridin-7-yl-1-(4-trifluoromethoxy-benzenesulfonyl)-piperazine-2-carboxylic acid (1-phenyl-azetidin-3-ylmethyl)-amide] | 100 to 1000 nM | 100 to 1000 nM |
| CCCc1ccc(CNC(=O)[C@H]2CN(c3nc(Cl)c(C(=O)O)s3)CCN2S(=O)(=O)c2ccc(CC)cc2)cc1 [Example 868, 4-chloro-2-[(R)-4-(4-ethyl-benzenesulfonyl)-3-(4-propyl-benzylcarbamoyl)-piperazin-1-yl]-thiazole-5-carboxylic acid] | < 100 nM | < 100 nM |
| O=C(NCc1ccc(OC(F)(F)F)cc1)[C@H]1CN(c2nc3cnnc(Cl)c3s2)CCN1S(=O)(=O)c1ccc(OC(F)(F)F)cc1 [Example 869, (R)-4-(7-chloro-thiazolo[4,5-d]pyridazin-2-yl)-1-(4-trifluoromethoxy-benzenesulfonyl)-piperazine-2-carboxylic acid 4-trifluoromethoxy-benzylamide] | < 100 nM | < 100 nM |
| O=C(NCc1ccc(OC(F)(F)F)cc1)[C@H]1CN(c2nc3c(CO)n[nH]c(=O)c3s2)CCN1S(=O)(=O)c1ccc(OC(F)(F)F)cc1 [Example 870, (R)-4-(4-hydroxymethyl-7-oxo-6,7-dihydro-thiazolo[4,5-d]pyridazin-2-yl)-1-(4-trifluoromethoxy-benzenesulfonyl)-piperazine-2-carboxylic acid 4-trifluoromethoxy-benzylamide] | < 100 nM | < 100 nM |
| CC(C)NC(=O)c1cncc2ncc(N3CCN(S(=O)(=O)c4ccc(OC(F)(F)F)cc4)[C@@H](C(=O)NCc4ccc(OC(F)(F)F)cc4)C3)nc12 [Example 871, 2-[(R)-4-(4-trifluoromethoxy-benzenesulfonyl)-3-(4-trifluoromethoxy-benzylcarbamoyl)-piperazin-1-yl]-pyrido[3,4-b]pyrazine-8-carboxylic acid isopropylamide] | < 100 nM | < 100 nM |
| N#Cc1cncc2ncc(N3CCN(S(=O)(=O)c4ccc(OC(F)(F)F)cc4)[C@@H](C(=O)NCc4ccc(OC(F)(F)F)cc4)C3)nc12 [Example 872, (R)-4-(8-cyano-pyrido[3,4-b]pyrazin-2-yl)-1-(4-trifluoromethoxy-benzenesulfonyl)-piperazine-2-carboxylic acid 4-trifluoromethoxy-benzylamide] | < 100 nM | < 100 nM |
| O=C(NCc1ccc(OC(F)(F)F)cc1)[C@H]1CN(c2nc3cn[nH]c(=O)c3s2)CCN1S(=O)(=O)c1ccc(Cl)cc1 [Example 873, (R)-1-(4-chloro-benzenesulfonyl)-4-(7-oxo-6,7-dihydro-thiazolo[4,5-d]pyridazin-2-yl)-piperazine-2-carboxylic acid 4-trifluoromethoxy-benzylamide] | < 100 nM | < 100 nM |
| O=C(O)c1n[nH]c(=O)c2sc(N3CCN(S(=O)(=O)c4ccc(OC(F)(F)F)cc4)[C@@H](C(=O)NCc4ccc(OC(F)(F)F)cc4)C3)nc12 [Example 874, 7-oxo-2-[(R)-4-(4-trifluoromethoxy-benzenesulfonyl)-3-(4-trifluoromethoxy-benzylcarbamoyl)-piperazin-1-yl]-6,7-dihydro-thiazolo[4,5-d]pyridazine-4-carboxylic acid] | < 100 nM | < 100 nM |
| CNC(=O)c1n[nH]c(=O)c2sc(N3CCN(S(=O)(=O)c4ccc(OC(F)(F)F)cc4)[C@@H](C(=O)NCc4ccc(OC(F)(F)F)cc4)C3)nc12 [Example 875, 7-oxo-2-[(R)-4-(4-trifluoromethoxy-benzenesulfonyl)-3-(4-trifluoromethoxy-benzylcarbamoyl)-piperazin-1-yl]-6,7-dihydro-thiazolo[4,5-d]pyridazine-4-carboxylic acid methylamide] | < 100 nM | < 100 nM |

Source: US8017612B2, “Piperazine compound and use thereof as a HCV polymerase inhibitor” (priority 2006, dated 2011)
